Data published in patent publication US11780849B2, “Imino sulfanone inhibitors of ENPP1” (Volastra Therapeutics, Inc., priority 2020, dated 2023).
Where two headings read alike, the source gives them in different places.

How the values were obtained:
ENPP-1 ECD [1] = target: T1, ENPP-1 ECD (Homo sapiens (Human), UniProt P22413); assay: Assay 1: inhibition of ENPP1 hydrolysis of 2′,3′-cGAMP (AMP-Glo, […] enzyme)
Procedure: Assay 1: Test compounds were plated in a 3× dilution scheme in a 384 well plate. […] AMP Detection solution (100 μL) was added to each well, the plate centrifuged and incubated for 60 min.

ENPP-1 ECD [2] = target: T1, ENPP-1 ECD; assay: Assay 2: inhibition of ENPP1 hydrolysis of 2′,3′-cGAMP (AMP-Glo, […] enzyme)
Procedure: Assay 2: Compared to the conditions in Assay 1, this assay has a larger dynamic range and ensures the system is under steady-state conditions by reducing the enzyme concentration in the assay.
Test compounds were plated in a 3× dilution scheme in a 384 well plate. […] AMP Detection solution (10 μL) was added to each well, the plate centrifuged and incubated for 60 min.

[3] = target: ENPP1 on MDA-MB-231 cells (Homo sapiens (Human), UniProt P22413); assay: Assay 3: inhibition of ENPP1 hydrolysis of AMP p-nitrophenyl ester on MDA-MB-231 cells
Chain of ENPP1 on MDA-MB-231 cells (P22413 whole entry): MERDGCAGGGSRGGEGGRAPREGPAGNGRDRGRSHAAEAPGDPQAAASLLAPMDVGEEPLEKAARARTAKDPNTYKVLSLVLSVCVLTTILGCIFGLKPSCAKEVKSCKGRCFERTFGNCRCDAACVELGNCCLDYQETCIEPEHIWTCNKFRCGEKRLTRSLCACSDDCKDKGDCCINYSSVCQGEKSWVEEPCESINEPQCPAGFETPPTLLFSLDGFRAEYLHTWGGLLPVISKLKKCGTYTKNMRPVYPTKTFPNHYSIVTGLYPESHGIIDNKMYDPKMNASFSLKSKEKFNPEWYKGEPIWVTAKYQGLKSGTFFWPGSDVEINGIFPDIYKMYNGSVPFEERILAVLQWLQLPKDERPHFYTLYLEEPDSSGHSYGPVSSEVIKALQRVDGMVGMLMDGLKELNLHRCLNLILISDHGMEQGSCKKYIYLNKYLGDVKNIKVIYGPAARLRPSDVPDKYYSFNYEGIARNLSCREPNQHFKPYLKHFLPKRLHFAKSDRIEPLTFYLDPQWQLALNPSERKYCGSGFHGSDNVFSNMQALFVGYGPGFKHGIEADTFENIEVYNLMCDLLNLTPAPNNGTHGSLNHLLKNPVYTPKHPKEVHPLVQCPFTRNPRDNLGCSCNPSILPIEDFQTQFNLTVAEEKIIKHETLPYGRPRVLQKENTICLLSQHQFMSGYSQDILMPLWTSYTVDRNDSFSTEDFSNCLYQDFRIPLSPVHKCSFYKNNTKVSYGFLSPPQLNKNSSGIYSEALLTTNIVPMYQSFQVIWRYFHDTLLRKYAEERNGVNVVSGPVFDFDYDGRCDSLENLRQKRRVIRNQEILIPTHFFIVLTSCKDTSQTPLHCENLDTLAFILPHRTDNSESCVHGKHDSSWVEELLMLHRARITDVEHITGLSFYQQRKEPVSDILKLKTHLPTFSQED

[4] = read-out: Assay 1 (IC50), ENPP1 hydrolysis of 2′,3′-cGAMP, AMP-Glo
[5] = read-out: Assay 1 (IC50), inhibition of ENPP1 hydrolysis of 2′,3′-cGAMP, no unit in Table 18 (Table 17 legend for this assay uses nM)
[6] = read-out: Assay 2 (KI), ENPP1 hydrolysis of 2′,3′-cGAMP, AMP-Glo, […] ENPP-1, 24 μM cGAMP
[7] = read-out: Assay 2 (KI), inhibition of ENPP1 hydrolysis of 2′,3′-cGAMP, no unit in Table 18 (Table 17 legend for this assay uses nM)
[8] = read-out: Assay 3 (KI, app), apparent KI from IC50 via Cheng/Prusoff, pNP-AMP […], MDA-MB-231 cells, pH 7.4, 37° C., 3 h, unit inferred
[9] = Assay 1 (IC50), ENPP1 hydrolysis of 2′,3′-cGAMP, AMP-Glo
[10] = Assay 1 (IC50), inhibition of ENPP1 hydrolysis of 2′,3′-cGAMP, no unit in Table 18 (Table 17 legend for this assay uses nM)
[11] = Assay 2 (KI), ENPP1 hydrolysis of 2′,3′-cGAMP, AMP-Glo, […] ENPP-1, 24 μM cGAMP
[12] = Assay 2 (KI), inhibition of ENPP1 hydrolysis of 2′,3′-cGAMP, no unit in Table 18 (Table 17 legend for this assay uses nM)
[13] = IC50 in Assay 1, […] ENPP-1 ECD, 24 μM 2,3-cGAMP, pH 8.0
[14] = KI in Assay 2, […] ENPP-1 ECD, 24 μM 2,3-cGAMP, pH 8.0, converted from IC50 via Cheng/Prusoff

T1 sequence (P22413 98-925): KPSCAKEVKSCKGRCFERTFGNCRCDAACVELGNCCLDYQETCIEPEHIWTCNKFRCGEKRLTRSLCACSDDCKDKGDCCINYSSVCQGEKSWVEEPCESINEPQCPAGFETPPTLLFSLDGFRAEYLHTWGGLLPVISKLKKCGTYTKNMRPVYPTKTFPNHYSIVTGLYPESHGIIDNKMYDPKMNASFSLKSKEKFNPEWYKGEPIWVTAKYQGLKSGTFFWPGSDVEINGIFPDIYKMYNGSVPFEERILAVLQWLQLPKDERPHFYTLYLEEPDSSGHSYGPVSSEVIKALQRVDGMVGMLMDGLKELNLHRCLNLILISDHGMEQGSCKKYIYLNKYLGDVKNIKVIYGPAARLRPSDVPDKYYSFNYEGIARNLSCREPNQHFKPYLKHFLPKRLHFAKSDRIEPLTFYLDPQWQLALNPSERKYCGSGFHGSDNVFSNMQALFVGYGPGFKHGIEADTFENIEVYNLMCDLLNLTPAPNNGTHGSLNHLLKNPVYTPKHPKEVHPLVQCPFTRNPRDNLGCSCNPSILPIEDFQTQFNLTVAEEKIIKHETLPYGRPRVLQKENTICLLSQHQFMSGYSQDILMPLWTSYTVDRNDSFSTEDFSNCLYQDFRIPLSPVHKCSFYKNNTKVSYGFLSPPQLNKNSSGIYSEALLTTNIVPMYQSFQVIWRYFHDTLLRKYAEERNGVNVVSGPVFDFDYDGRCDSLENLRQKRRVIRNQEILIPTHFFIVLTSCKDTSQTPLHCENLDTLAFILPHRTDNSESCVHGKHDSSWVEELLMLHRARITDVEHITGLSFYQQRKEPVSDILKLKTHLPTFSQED

SMILES | IC50 (ENPP-1 ECD [1]; [4]) [nM] | IC50 (ENPP-1 ECD [1]; [5]) [nM] | Ki (ENPP-1 ECD [2]; [6]) [nM] | Ki (ENPP-1 ECD [2]; [7]) [nM] | Ki [3, 8] [nM] | IC50 (ENPP-1 ECD [1]; [9]) [nM] | IC50 (ENPP-1 ECD [1]; [10]) [nM] | Ki (ENPP-1 ECD [2]; [11]) [nM] | Ki (ENPP-1 ECD [2]; [12]) [nM] | Ki [3] [nM] | IC50 (ENPP-1 ECD [1]; [13]) [nM] | Ki (ENPP-1 ECD [2]; [14]) [nM]
COc1cc2nccc(Oc3ccc([S@@](=N)(=O)C4CC4)cc3)c2cc1F [Compound 120a] | < 10 | 0.46 | < 3 | 0.05 | 6.5 | – | – | – | – | – | – | –
COc1cc2nncc(Oc3ccc(S(C)(=N)=O)cc3)c2cc1OC (stereo not shown) [Compound 127, {4-[(6,7-dimethoxycinnolin-4-yl)oxy]phenyl}(imino)methyl-λ^6-sulfanone] | – | – | – | – | – | 10 to 1000 | 30 | 3 to 300 | 5 | 380 | – | –
COc1ccc2c(OCc3cccc(S(C)(=N)=O)c3)ccnc2c1 (stereo not shown) [Compound 133, imino(3-{[(7-methoxyquinolin-4-yl)oxy]methyl}phenyl)methyl-λ^6-sulfanone] | – | – | – | – | – | – | 1.4 | < 3 | 0.12 | 13 | – | –
COc1ccc2c(OCc3cccc([S@@](C)(=N)=O)c3)ccnc2c1 [Compound 133a] | < 10 | 0.5 | < 3 | 0.055 | 4.1 | – | – | – | – | – | – | –
COc1ccc2c(OCc3ccc(S(C)(=N)=O)cc3F)ccnc2c1 (stereo not shown) [Compound 135, (3-fluoro-4-{[(7-methoxyquinolin-4-yl)oxy]methyl}phenyl)(imino)methyl-λ^6-sulfanone] | – | – | – | – | – | – | 7.8 | < 3 | 1.4 | 110 | – | –
COc1cc2nccc(OCc3ccc(S(C)(=N)=O)cc3)c2cc1F (stereo not shown) [Compound 136] | < 10 | – | – | – | – | – | 2 | < 3 | 0.32 | 29 | – | –
COc1cc2nccc(OCc3ccc(S(C)(=N)=O)cc3)c2cc1OC (stereo not shown) [Compound 138, (4-{[(6,7-dimethoxyquinolin-4-yl)oxy]methyl}phenyl)(imino)methyl-λ^6-sulfanone] | – | – | – | – | – | 10 to 1000 | 37 | 3 to 300 | 4.6 | 140 | – | –
COc1cc2nccc(N3CCC(CCS(C)(=N)=O)CC3)c2cc1Cl (stereo not shown) [Compound 141, {2-[1-(6-chloro-7-methoxyquinolin-4-yl)piperidin-4-yl]ethyl}(imino)methyl-λ^6-sulfanone] | – | – | – | – | – | – | 2.1 | < 3 | 0.25 | 16 | – | –
COc1cc2nccc(N3CCC(CCS(C)(=N)=O)CC3)c2cc1F (stereo not shown) [Compound 150, {2-[1-(6-fluoro-7-methoxyquinolin-4-yl)piperidin-4-yl]ethyl}(imino)methyl-λ^6-sulfanone] | – | – | – | – | – | – | 8.6 | < 3 | 1.3 | 62 | – | –
COc1cc2nncc(N3CCC(CCS(C)(=N)=O)CC3)c2cc1OC (stereo not shown) [Compound 151, {2-[1-(6,7-dimethoxycinnolin-4-yl)piperidin-4-yl]ethyl}(imino)methyl-λ^6-sulfanone] | – | – | – | – | – | – | 6.2 | < 3 | 0.57 | 59 | – | –
COc1cc2ncc(C#N)c(N3CCC(CCS(C)(=N)=O)CC3)c2cc1Cl (stereo not shown) [Compound 152, 6-chloro-4-(4-{2-[imino(methyl)oxo-λ6-sulfanyl]ethyl}piperidin-1-yl)-7-methoxyquinoline-3-carbonitrile] | < 10 | – | – | – | – | – | 2.4 | < 3 | 0.41 | 26 | – | –
COc1cc2nccc(-c3ccc4c(c3)CN(S(C)(=N)=O)CC4)c2cc1OC (stereo not shown) [Compound 161, [7-(6,7-dimethoxyquinolin-4-yl)-1,2,3,4-tetrahydroisoquinolin-2-yl](imino)methyl-λ^6-sulfanone] | – | – | – | – | – | – | 1.3 | < 3 | 0.051 | 3.7 | 1.3 | –
COc1cc2nccc(Oc3ccc(S(N)(=O)=O)cc3)c2cc1OC [reference compound] | – | – | – | – | – | – | – | – | – | 380 | 190 | 32
COc1cc2ncc(C#N)c(N3CCC4(CC3)CCN(S(N)(=O)=O)C4)c2cc1F [reference compound] | – | – | – | – | – | – | – | – | – | 24 | 2.9 | 0.47
